# From patent publication US7901700B2, “Bifenthrin/acetamiprid compositions for control of general household pests” (FMC Corporation, priority 2004, dated 2011)
# What was measured:
# Bed Bugs = experiment: Bed bug mortality, spray chamber application; type: in vivo
# Method: The compositions of the present invention were tested for bed bug activity in the following manner:
# (§1) Test compositions made up of TALSTARONE® MULTI-INSECTICIDE and a 70% wettable powder of acetamiprid in distilled water were prepared that provided appropriate rates of application of combinations of bifenthrin and acetamiprid, as well as bifenthrin and acetamiprid alone.
# (§2) The spray chamber was then calibrated to deliver the treatment solution at the desired volume and pressure over the desired area on the chamber shelf. Spray chamber shelf height was adjusted to approximately 10.5 inches from the spray tip. The shelf was then covered with aluminum foil and the center of the shelf from front-to-back and end-to-end was determined. The bed bugs to be treated were collected and placed in screened 16 oz paper cups. The paper cups were placed onto the aluminum foil on the spray chamber shelf. The sprayer was activated and the test compound was applied to each paper cup interior. Bed bug mortality was measured.
# House Flies = experiment: House fly knockdown and mortality, hand held sprayer application; type: in vivo
# Method: The compositions of the present invention were tested for house fly activity in the following manner:
# as §1
# A DeVilbiss hand held sprayer was used to deliver the treatment solution at the desired volume and pressure. The house flies to be treated were collected and placed in screened 16 oz paper cups. The hand held sprayer was activated and the test compound was applied to each paper cup interior. House fly knockdown and mortality were measured.
# Red Imported Fire Ant = experiment: Red imported fire ant knockdown and mortality, spray chamber application; type: in vivo, Solenopsis invicta
# Method: The compositions of the present invention were tested for red imported fire ant activity in the following manner:
# as §1
# as §2, with “approximately 18” for “approximately 10.5”, “The red imported fire ants” for “The bed bugs”, “interior. Red imported fire ant knockdown and” for “interior. Bed bug”, “mortality were” for “mortality was”
# German cockroach = German cockroach knockdown and mortality, spray chamber application; type: in vivo
# Method: The compositions of the present invention were tested for German cockroach activity in the following manner:
# as §1
# The spray chamber was then calibrated to deliver the treatment solution at the desired volume and pressure over the desired area on the chamber shelf. Spray chamber shelf height was adjusted to approximately 18 inches from the spray tip. The shelf was then covered with aluminum foil and the center of the shelf from front-to-back and end-to-end was determined. A desired number of 4.0″ sieve circles were marked on the aluminum foil with a permanent marker. The inside of a desired number of PVC rings were coated with a petroleum jelly/mineral oil mixture (1:2 ratio). The PVC rings were place on the sieve circles. 10 male German cockroaches were placed inside each PVC ring. The sprayer was activated and the test compound was applied to each PVC ring interior. German cockroach knockdown and mortality were measured.
# [1] = Rate of Appln. 200 PPM (0.02% by weight)
# [2] = Rate of Appln. 600 PPM (0.06% by weight)
# [3] = Rate of Appln. 10 PPM (0.001% by weight)
# [4] = Rate of Appln. 50 PPM (0.005% by weight)
# [5] = Rate of Appln. 300 PPM (0.03% by weight)
# [6] = Rate of Appln. 250 PPM (0.025% by weight)
# [7] = Rate of Appln. 500 PPM (0.05% by weight)
# [8] = Rate of Appln. 1000 PPM (0.10% by weight)
# [9] = Rate of Appln. 100 PPM (0.01% by weight)
# [10] = Rate of Appln. 125 PPM (0.0125% by weight)
structure (smiles),measurement,setting,value
"Cc1c(COC(=O)[C@@H]2[C@H](/C=C(\Cl)C(F)(F)F)C2(C)C)cccc1-c1ccccc1 (racemic) [A, 2-methylbiphenyl-3-ylmethyl(Z)-(1RS)-cis-3-(2-chloro-3,3,3-trifluoroprop-1-enyl)-2,2-dimethylcyclopropanecarboxylate]",Mortality Rate @ 2 hours,Bed Bugs; [1],85%
same,Mortality Rate @ 1 day,Bed Bugs; [1],100%
same,Mortality Rate @ 2 hours,Bed Bugs; [2],75%
same,Mortality Rate @ 1 day,Bed Bugs; [2],100%
same,Knockdown Rate @ 15 minutes,House Flies; [3],0%
same,Knockdown Rate @ 30 minutes,House Flies; [3],0%
same,Knockdown Rate @ 60 minutes,House Flies; [3],19%
same,Knockdown Rate @ 120 minutes,House Flies; [3],19%
same,Knockdown Rate @ 240 minutes,House Flies; [3],48%
same,Mortality Rate @ 1 day,House Flies; [3],3%
same,Knockdown Rate @ 15 minutes,House Flies; [4],0%
same,Knockdown Rate @ 30 minutes,House Flies; [4],19%
same,Knockdown Rate @ 60 minutes,House Flies; [4],59%
same,Knockdown Rate @ 120 minutes,House Flies; [4],63%
same,Knockdown Rate @ 240 minutes,House Flies; [4],100%
same,Mortality Rate @ 1 day,House Flies; [4],63%
same,Knockdown Rate @ 10 minutes,Red Imported Fire Ant; [5],63%
same,Knockdown Rate @ 15 minutes,Red Imported Fire Ant; [5],100%
same,Knockdown Rate @ 30 minutes,Red Imported Fire Ant; [5],100%
same,Mortality Rate @ 60 minutes,Red Imported Fire Ant; [5],100%
same,Mortality Rate @ 120 minutes,Red Imported Fire Ant; [5],100%
same,Mortality Rate @ 240 minutes,Red Imported Fire Ant; [5],100%
same,Knockdown Rate @ 10 minutes,Red Imported Fire Ant; [2],78%
same,Knockdown Rate @ 15 minutes,Red Imported Fire Ant; [2],100%
same,Knockdown Rate @ 30 minutes,Red Imported Fire Ant; [2],100%
same,Mortality Rate @ 60 minutes,Red Imported Fire Ant; [2],100%
same,Mortality Rate @ 120 minutes,Red Imported Fire Ant; [2],100%
same,Mortality Rate @ 240 minutes,Red Imported Fire Ant; [2],100%
same,Knockdown Rate @ 10 minutes,German cockroach; [3],0%
same,Knockdown Rate @ 15 minutes,German cockroach; [3],3%
same,Knockdown Rate @ 30 minutes,German cockroach; [3],23%
same,Mortality Rate @ 60 minutes,German cockroach; [3],40%
same,Mortality Rate @ 240 minutes,German cockroach; [3],50%
same,Knockdown Rate @ 10 minutes,German cockroach; [4],0%
same,Knockdown Rate @ 15 minutes,German cockroach; [4],0%
same,Knockdown Rate @ 30 minutes,German cockroach; [4],0%
same,Mortality Rate @ 60 minutes,German cockroach; [4],38%
same,Mortality Rate @ 240 minutes,German cockroach; [4],60%
same,Knockdown Rate @ 10 minutes,German cockroach; [1],0%
same,Knockdown Rate @ 15 minutes,German cockroach; [1],3%
same,Knockdown Rate @ 30 minutes,German cockroach; [1],45%
same,Mortality Rate @ 60 minutes,German cockroach; [1],100%
same,Mortality Rate @ 120 minutes,German cockroach; [1],100%
same,Mortality Rate @ 240 minutes,German cockroach; [1],100%
same,Knockdown Rate @ 10 minutes,German cockroach; [2],0%
same,Knockdown Rate @ 15 minutes,German cockroach; [2],8%
same,Knockdown Rate @ 30 minutes,German cockroach; [2],60%
same,Mortality Rate @ 60 minutes,German cockroach; [2],100%
same,Mortality Rate @ 120 minutes,German cockroach; [2],100%
same,Mortality Rate @ 240 minutes,German cockroach; [2],100%
"C/C(=N\C#N)N(C)Cc1ccc(Cl)nc1 [B, (E)-N^1-[(6-chloro-3-pyridyl)methyl]-N^2-cyano-N^1-methylacetamidine]",Mortality Rate @ 2 hours,Bed Bugs; [6],30%
same,Mortality Rate @ 1 day,Bed Bugs; [6],95%
same,Mortality Rate @ 2 hours,Bed Bugs; [7],60%
same,Mortality Rate @ 1 day,Bed Bugs; [7],100%
same,Mortality Rate @ 2 hours,Bed Bugs; [8],95%
same,Mortality Rate @ 1 day,Bed Bugs; [8],100%
same,Knockdown Rate @ 15 minutes,House Flies; [9],47%
same,Knockdown Rate @ 30 minutes,House Flies; [9],47%
same,Knockdown Rate @ 60 minutes,House Flies; [9],53%
same,Knockdown Rate @ 120 minutes,House Flies; [9],41%
same,Knockdown Rate @ 240 minutes,House Flies; [9],53%
same,Mortality Rate @ 1 day,House Flies; [9],16%
same,Knockdown Rate @ 15 minutes,House Flies; [1],69%
same,Knockdown Rate @ 30 minutes,House Flies; [1],86%
same,Knockdown Rate @ 60 minutes,House Flies; [1],72%
same,Knockdown Rate @ 120 minutes,House Flies; [1],72%
same,Knockdown Rate @ 240 minutes,House Flies; [1],78%
same,Mortality Rate @ 1 day,House Flies; [1],28%
same,Knockdown Rate @ 10 minutes,Red Imported Fire Ant; [10],0%
same,Knockdown Rate @ 15 minutes,Red Imported Fire Ant; [10],0%
same,Knockdown Rate @ 30 minutes,Red Imported Fire Ant; [10],10%
same,Mortality Rate @ 60 minutes,Red Imported Fire Ant; [10],5%
same,Mortality Rate @ 120 minutes,Red Imported Fire Ant; [10],65%
same,Mortality Rate @ 240 minutes,Red Imported Fire Ant; [10],90%
same,Knockdown Rate @ 10 minutes,Red Imported Fire Ant; [6],10%
same,Knockdown Rate @ 15 minutes,Red Imported Fire Ant; [6],3%
same,Knockdown Rate @ 30 minutes,Red Imported Fire Ant; [6],5%
same,Mortality Rate @ 60 minutes,Red Imported Fire Ant; [6],13%
same,Mortality Rate @ 120 minutes,Red Imported Fire Ant; [6],98%
same,Mortality Rate @ 240 minutes,Red Imported Fire Ant; [6],100%
same,Knockdown Rate @ 10 minutes,Red Imported Fire Ant; [7],0%
same,Knockdown Rate @ 15 minutes,Red Imported Fire Ant; [7],15%
same,Knockdown Rate @ 30 minutes,Red Imported Fire Ant; [7],15%
same,Mortality Rate @ 60 minutes,Red Imported Fire Ant; [7],60%
same,Mortality Rate @ 120 minutes,Red Imported Fire Ant; [7],100%
same,Mortality Rate @ 240 minutes,Red Imported Fire Ant; [7],100%
same,Knockdown Rate @ 10 minutes,German cockroach; [4],0%
same,Knockdown Rate @ 15 minutes,German cockroach; [4],13%
same,Knockdown Rate @ 30 minutes,German cockroach; [4],38%
same,Mortality Rate @ 60 minutes,German cockroach; [4],53%
same,Mortality Rate @ 240 minutes,German cockroach; [4],63%
same,Knockdown Rate @ 10 minutes,German cockroach; [9],0%
same,Knockdown Rate @ 15 minutes,German cockroach; [9],8%
same,Knockdown Rate @ 30 minutes,German cockroach; [9],38%
same,Mortality Rate @ 60 minutes,German cockroach; [9],58%
same,Mortality Rate @ 240 minutes,German cockroach; [9],63%
same,Knockdown Rate @ 10 minutes,German cockroach; [6],10%
same,Knockdown Rate @ 15 minutes,German cockroach; [6],35%
same,Knockdown Rate @ 30 minutes,German cockroach; [6],75%
same,Mortality Rate @ 60 minutes,German cockroach; [6],88%
same,Mortality Rate @ 120 minutes,German cockroach; [6],90%
same,Mortality Rate @ 240 minutes,German cockroach; [6],83%
same,Knockdown Rate @ 10 minutes,German cockroach; [7],8%
same,Knockdown Rate @ 15 minutes,German cockroach; [7],45%
same,Knockdown Rate @ 30 minutes,German cockroach; [7],88%
same,Mortality Rate @ 60 minutes,German cockroach; [7],80%
same,Mortality Rate @ 120 minutes,German cockroach; [7],98%
same,Mortality Rate @ 240 minutes,German cockroach; [7],80%
same,Knockdown Rate @ 10 minutes,German cockroach; [8],38%
same,Knockdown Rate @ 15 minutes,German cockroach; [8],75%
same,Knockdown Rate @ 30 minutes,German cockroach; [8],93%
same,Mortality Rate @ 60 minutes,German cockroach; [8],100%
same,Mortality Rate @ 120 minutes,German cockroach; [8],98%
same,Mortality Rate @ 240 minutes,German cockroach; [8],80%
